The values that follow come from ChEMBL document CHEMBL1201862, “PubChem BioAssay data set” (2004).

Usually EC50 stands for the concentration at which the effect is half-maximal. What is called AC50 is the midpoint of the concentration-response curve, whichever way the signal moves. Broadly, the IC50 is the concentration that inhibits the measured activity by half.

The structures appear in SMILES notation. The source made the active and inactive calls.

Test [1] concerns Streptococcus sp. 'group A'. As to the kind of experiment: growth inhibition of control SK(-) GAS strain, dose response, counter-screen for streptokinase expression inhibitor project, luminescence, kanamycin, BacTiterGlo, confirmation (AID 1900). The test is classed as functional, organism-based. Background: A counterscreen serves to expose hits that act by an unwanted route or on another target.

Another test has as its system Streptococcus. In words: Group A Streptococcus viability loss, dose response, counter-screen for streptokinase expression inhibitor project, luminescence, BacTiterGlo (AID 1915).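 Further: potency for reduction of bacterial viability or growth.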 The test is classed as functional, organism-based.
The target in a further test is T1, CAAX prenyl protease 2 (Saccharomyces cerevisiae S288c, UniProt Q03530).
T1 sequence (Q03530 whole entry): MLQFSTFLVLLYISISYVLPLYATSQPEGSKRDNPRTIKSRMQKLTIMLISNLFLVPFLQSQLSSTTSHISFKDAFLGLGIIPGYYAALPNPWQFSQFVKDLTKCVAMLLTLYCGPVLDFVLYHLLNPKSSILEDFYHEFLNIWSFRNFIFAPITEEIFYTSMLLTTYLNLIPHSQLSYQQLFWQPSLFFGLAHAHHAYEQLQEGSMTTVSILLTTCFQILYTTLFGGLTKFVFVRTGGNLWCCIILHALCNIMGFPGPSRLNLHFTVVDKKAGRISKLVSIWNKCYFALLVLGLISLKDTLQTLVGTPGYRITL
Format: biochemical.

Test [2] deals with Heat shock protein HSP 90-alpha (Homo sapiens, UniProt P07900). The test is classed as functional, organism-based.
Test [3] has as its target T2, Apoptotic protease-activating factor 1 (Homo sapiens, UniProt O14727).
T2 sequence (O14727 whole entry): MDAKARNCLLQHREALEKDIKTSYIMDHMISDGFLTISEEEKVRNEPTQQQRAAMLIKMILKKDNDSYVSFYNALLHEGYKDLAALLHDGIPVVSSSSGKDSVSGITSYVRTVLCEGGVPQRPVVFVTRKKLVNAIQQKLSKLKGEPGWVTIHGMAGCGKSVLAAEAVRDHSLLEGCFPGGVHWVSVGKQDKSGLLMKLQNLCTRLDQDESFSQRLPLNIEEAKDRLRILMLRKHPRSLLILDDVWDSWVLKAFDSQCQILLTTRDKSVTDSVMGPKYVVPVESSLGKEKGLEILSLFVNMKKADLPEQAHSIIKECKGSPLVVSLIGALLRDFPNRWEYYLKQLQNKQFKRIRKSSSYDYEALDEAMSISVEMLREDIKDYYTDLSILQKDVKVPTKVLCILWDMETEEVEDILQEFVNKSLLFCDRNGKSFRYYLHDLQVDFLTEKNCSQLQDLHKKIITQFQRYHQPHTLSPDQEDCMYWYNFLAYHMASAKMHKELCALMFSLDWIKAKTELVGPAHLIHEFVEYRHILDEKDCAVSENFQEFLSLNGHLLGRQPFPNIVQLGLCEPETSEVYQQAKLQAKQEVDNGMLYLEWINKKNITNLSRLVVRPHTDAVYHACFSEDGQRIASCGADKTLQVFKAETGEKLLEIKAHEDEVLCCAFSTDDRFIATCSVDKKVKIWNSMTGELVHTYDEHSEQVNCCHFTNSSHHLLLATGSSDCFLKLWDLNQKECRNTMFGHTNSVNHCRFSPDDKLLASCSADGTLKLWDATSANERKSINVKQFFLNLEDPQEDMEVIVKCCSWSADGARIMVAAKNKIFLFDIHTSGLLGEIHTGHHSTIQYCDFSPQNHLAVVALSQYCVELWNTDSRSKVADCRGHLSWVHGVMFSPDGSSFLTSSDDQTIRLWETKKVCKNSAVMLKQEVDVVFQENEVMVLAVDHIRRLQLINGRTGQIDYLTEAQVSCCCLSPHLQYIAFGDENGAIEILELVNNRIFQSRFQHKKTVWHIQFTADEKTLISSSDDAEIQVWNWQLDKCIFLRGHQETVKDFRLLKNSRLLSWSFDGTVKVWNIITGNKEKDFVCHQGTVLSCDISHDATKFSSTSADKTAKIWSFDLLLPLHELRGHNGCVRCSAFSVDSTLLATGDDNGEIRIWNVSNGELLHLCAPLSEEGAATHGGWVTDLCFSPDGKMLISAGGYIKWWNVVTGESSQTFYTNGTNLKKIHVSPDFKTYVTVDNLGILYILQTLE
The test is classed as functional.

Test [4] in a line: nonselective inhibitors of cellular cAMP signaling, dose response, counter-screen for MC4R biased antagonist project, cell-based, TR-FRET cAMP detection (AID 602305).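 Further: U2OS cells stimulated with forskolin near its EC80 as the cAMP inducer; potency is for inhibition of forskolin-stimulated cAMP signaling.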 The test is classed as functional.
Test [5] has as its target T3, Heat shock factor protein 1 (Mus musculus, UniProt P38532).
T3 sequence (P38532 whole entry): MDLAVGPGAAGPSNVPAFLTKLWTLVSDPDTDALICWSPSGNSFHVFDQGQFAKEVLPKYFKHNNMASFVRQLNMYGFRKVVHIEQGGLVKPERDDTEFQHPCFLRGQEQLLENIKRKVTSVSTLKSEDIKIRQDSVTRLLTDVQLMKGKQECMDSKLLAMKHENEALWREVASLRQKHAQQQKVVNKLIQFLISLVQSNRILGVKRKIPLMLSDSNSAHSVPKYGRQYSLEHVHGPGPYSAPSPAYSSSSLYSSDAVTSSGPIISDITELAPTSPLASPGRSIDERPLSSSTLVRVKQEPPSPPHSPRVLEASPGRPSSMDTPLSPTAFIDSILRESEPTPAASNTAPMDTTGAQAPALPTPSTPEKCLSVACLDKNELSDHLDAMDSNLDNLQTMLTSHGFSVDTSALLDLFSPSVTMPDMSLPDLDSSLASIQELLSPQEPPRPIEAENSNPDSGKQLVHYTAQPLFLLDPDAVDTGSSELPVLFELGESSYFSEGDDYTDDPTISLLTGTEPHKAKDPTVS
As to the kind of experiment: inhibition of MG132-induced HSE-luciferase signal, confirmation, cell-based, NIH3T3, luminescence, dose retest (AID 2382).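 Further: NIH3T3 fibroblasts with HSF1-driven luciferase reporter stressed by proteasome inhibitor MG132; luminescence from HSF1-driven luciferase expression after 8 hours of MG132 stress.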 The test is classed as functional.

The nature of test [6]: growth suppression of PTEN-null colon cells, dose response, cell-based, HCT116 PTEN knockout (AID 1047).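 Further: HCT116 colon tumor cells with PTEN knocked out; cells exposed to compound for 60 hours before readout; potency for loss of cell viability measured by luminescence.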 The test is classed as functional.
Test [7] has as its target Neurotensin receptor type 1 (Homo sapiens, UniProt P30989). The test is classed as functional.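 Further: Image-based confirmatory dose-response assay measuring agonist activity at NTR1; NTR1-expressing U2OS osteosarcoma cells imaged for beta-arrestin GFP spot formation; agonist potency where compounds increase beta-arrestin recruitment.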
The target in the next test is Fatty acid synthase (Homo sapiens, UniProt P49327). As to the kind of experiment: FAS thioesterase domain inhibitors, dose response, biochemical, endpoint fluorescence intensity, uHTS hits (AID 624327).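 Further: fluorescence from hydrolysis of an O-methyl fluorescein acyl ester substrate by the enzyme.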 The test is classed as functional.
Fatty acid synthase, sequence (P49327 whole entry, the tested form may be a part): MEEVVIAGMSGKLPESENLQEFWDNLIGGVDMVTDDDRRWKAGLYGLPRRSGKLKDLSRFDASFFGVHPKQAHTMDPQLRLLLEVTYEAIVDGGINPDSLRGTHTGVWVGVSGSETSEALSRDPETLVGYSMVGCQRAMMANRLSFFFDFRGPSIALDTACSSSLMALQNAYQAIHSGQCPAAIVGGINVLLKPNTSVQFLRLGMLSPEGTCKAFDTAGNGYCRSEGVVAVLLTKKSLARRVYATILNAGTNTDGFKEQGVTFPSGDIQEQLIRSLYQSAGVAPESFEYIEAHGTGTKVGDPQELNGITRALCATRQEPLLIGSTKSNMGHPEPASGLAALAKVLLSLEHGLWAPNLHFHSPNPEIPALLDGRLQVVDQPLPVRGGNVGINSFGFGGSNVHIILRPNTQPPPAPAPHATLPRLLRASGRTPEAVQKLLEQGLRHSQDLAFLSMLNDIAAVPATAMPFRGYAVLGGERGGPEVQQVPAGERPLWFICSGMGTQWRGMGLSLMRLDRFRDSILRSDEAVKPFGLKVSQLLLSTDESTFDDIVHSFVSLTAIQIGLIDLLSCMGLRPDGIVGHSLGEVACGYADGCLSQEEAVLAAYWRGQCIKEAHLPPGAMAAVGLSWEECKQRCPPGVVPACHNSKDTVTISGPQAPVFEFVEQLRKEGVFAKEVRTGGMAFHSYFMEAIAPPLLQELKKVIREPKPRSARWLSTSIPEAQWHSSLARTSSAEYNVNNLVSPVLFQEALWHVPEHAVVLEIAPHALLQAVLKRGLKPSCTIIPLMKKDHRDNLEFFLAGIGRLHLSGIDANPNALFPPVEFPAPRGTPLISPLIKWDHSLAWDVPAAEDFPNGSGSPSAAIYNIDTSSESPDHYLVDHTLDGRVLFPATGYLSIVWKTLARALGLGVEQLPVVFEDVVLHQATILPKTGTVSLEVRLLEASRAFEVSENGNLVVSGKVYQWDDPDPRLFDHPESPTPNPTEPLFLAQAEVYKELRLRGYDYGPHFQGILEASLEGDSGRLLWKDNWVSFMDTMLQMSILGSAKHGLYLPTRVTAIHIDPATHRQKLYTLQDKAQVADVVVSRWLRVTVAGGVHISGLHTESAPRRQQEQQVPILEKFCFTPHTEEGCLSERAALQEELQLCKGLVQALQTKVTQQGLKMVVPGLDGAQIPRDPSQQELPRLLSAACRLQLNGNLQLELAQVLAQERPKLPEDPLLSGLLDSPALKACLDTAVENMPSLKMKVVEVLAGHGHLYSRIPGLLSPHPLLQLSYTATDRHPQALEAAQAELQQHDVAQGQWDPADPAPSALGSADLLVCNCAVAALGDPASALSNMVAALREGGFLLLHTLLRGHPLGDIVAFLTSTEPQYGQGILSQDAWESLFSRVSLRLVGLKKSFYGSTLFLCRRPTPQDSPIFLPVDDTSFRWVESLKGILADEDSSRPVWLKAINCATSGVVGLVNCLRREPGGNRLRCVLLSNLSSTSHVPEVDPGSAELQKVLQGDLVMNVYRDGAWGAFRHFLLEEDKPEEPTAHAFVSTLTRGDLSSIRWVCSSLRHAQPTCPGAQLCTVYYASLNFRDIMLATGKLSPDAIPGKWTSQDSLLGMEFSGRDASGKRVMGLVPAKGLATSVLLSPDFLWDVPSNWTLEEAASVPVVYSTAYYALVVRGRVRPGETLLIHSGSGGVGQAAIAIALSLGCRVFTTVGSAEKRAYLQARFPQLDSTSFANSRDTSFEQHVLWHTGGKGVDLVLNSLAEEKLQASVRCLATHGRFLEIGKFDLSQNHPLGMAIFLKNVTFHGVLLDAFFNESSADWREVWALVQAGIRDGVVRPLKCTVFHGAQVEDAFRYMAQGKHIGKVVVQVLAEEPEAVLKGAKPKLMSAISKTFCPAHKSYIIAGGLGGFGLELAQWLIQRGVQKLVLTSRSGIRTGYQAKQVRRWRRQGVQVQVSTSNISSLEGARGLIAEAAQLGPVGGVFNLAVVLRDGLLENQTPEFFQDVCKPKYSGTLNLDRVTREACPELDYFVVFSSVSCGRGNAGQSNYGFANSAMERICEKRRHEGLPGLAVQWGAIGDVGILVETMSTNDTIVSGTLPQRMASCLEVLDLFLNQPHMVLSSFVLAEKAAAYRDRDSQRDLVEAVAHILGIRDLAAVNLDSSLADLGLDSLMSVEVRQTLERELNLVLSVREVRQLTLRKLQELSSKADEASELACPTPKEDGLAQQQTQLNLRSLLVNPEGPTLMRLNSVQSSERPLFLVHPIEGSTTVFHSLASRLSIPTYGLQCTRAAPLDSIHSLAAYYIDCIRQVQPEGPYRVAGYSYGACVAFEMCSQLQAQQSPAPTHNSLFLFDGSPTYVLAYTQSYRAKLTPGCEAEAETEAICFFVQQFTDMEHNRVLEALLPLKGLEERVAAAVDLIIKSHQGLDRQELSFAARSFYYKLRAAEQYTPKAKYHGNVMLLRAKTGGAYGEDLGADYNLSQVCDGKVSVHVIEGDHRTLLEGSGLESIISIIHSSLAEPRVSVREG
Test [8] in a line: non-specific cell cytotoxicity, dose response, cytotoxicity control for PAX8 inhibitor project, plate reader, dry powder samples (AID 743021). The test is classed as functional, cell-based.

Neurotensin receptor type 1, sequence (P30989 whole entry, the tested form may be a part): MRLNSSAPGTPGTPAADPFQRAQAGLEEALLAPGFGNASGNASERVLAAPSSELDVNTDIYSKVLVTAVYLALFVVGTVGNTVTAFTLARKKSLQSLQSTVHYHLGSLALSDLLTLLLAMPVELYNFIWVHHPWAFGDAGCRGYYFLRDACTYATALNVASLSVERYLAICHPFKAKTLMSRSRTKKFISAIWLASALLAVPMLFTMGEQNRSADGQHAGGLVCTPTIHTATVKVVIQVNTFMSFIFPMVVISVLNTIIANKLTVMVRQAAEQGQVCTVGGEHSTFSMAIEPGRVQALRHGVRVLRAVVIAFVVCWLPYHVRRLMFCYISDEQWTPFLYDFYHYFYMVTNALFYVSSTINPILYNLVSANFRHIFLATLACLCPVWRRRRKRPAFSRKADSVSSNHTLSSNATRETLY

As for `CCCCCCCCCC[N+](C)(C)CC/C=C1/c2ccccc2Sc2ccc(Cl)cc21`, the figures for the EC50 (in [1]; with Streptococcus) were 1.75 µM (active) and 5.62 µM (active), respectively. In addition, the AC50 at CAAX prenyl protease 2 was 4.96 µM (active); in test [2] it was 8.12 µM (active). For the same compound, the IC50 in test [3] is 10.6 µM (active); in test [4], 22.6 µM (inactive).
On to `O=C(NCCc1ccccc1)C(c1cccs1)N(C(=O)CCl)c1ccc(Cl)cc1` (centres undefined), for which the concentration giving a half-maximal response (EC50) in [5] was 1.28 µM (active); in test [6], 3.7 µM (active); in test [7] it was 2.5 µM (active). The IC50 at Fatty acid synthase is 7.91 µM (active). The AC50 in [8] was 6.13 µM (active).
Turning to `COc1cc(/C=C/c2cc[n+](C)cc2)ccc1OCC(=O)Nc1ccc(Cl)c(Cl)c1`, the results for the EC50 (in [1]; in the test on Streptococcus) were 12.7 µM (active) and 12.9 µM (active), respectively. The IC50 in test [3] is 22.6 µM (active).
